Values of other authors as cited in patent EP1096056A1, “Wrinkle resistant composition” (THE PROCTER & GAMBLE COMPANY, priority 1999, dated 2001).
Counter-ions that a name gives are not always drawn.

Legend:
[1] = in water

water solubility [1]	Compound	stability over a wide pH range
about 70%	[H]/N=C(\N/C(=N/[H])NCCCCCCNC(=N)NC(=N)Nc1ccc(Cl)cc1)Nc1ccc(Cl)cc1 [digluconate salt, 1,1'-hexamethylene bis(5-(p-chlorophenyl)biguanide)]	
about 1.8%	[H]/N=C(\N/C(=N/[H])NCCCCCCNC(=N)NC(=N)Nc1ccc(Cl)cc1)Nc1ccc(Cl)cc1 [diacetate salt, 1,1'-hexamethylene bis(5-(p-chlorophenyl)biguanide)]	
	Cn1sc2c(c1=O)CCC2 [Promexal, 2-methyl-4,5-trimethylene-4-isothiazolin-3-one]	4-12
	O=c1[nH]sc2ccccc12 [Proxel, 1,2-benzisothiazolin-3-one]	4-12

Compound	water solubility [1]	stability over a wide pH range
[Na+].[O-][n+]1ccccc1[S-] [sodium pyrithione]	about 50%	
